These results are taken from patent US20110190137A1, “METHOD TO INHIBIT ETHYLENE RESPONSES IN PLANTS” (priority 2003, published 2011).

Each structure is given as a SMILES string.

One assay relates to ethylene-induced epinasty in Patio variety tomato plants. Put plainly: Tomato epinasty test, volatile gas treatment. It counts as in vivo. The conditions noted are these: gas 10 ppm v/v; 10 ppm ethylene; scale 0 to 10 (10 = complete protection). How it is done: (§1) Objective: The test procedure is designed to determine the ability of an experimental compound to block the epinastic growth response induced by ethylene in tomato plants when the experimental compound is administered either as a volatile gas or as a component of a spray solution.
(§2) Treatment chambers are of an appropriate size for the test plants and are airtight. Each is fitted with a reusable septum to be used for injection of ethylene. Test plants are Patio variety tomato seedlings planted two plants per three inch square plastic pot.
Volatile gas treatment entails placing two pots of Patio var. tomatoes into a polystyrene 4.8 L volume treatment chamber along with one-half (upper or lower section) of a 50×9 mm plastic Petri dish containing a Gelman filter pad. The appropriate amount of experimental compound, dissolved in 1.0 ml acetone, is pipetted onto the filter pad and the chamber immediately sealed. Four hours later ethylene gas equal to 10 ppm v/v final concentration is injected into the sealed chamber. Sixteen hours later the chambers are opened in an exhaust hood, allowed to air and the plants scored visually for the degree of protection against ethylene-induced epinasty conferred by the experimental compound when compared to ethylene treated and untreated controls on a scale of 0 to 10. A rating of 10 means complete protection. A rating of 0 means no protection from the effects of ethylene. Gas treatment concentrations are volume/volume.
On to `Cc1cc(C)c(CC2=CC2)c(C)c1` [Compound 30], for which the “Gas @ 10 ppm: visual rating of protection against ethylene-induced epinasty” value (shortened to “Gas @ 10 ppm: visual rating”) is given as 3.
Same read-out and setting: with `C1=C(CC2CCCC2)C1` [Compound 31] the figure was 9.
Turning to `C1=C(CCCCCCCn2cccn2)C1` [Compound 32], the “Gas @ 10 ppm: visual rating” value amounted to 3.
The same measure, in the same setting: with `C1=C(CCCC2OCCO2)C1` [Compound 33] the figure was 8; with `C1=C(CCSc2ccccn2)C1` [Compound 35], 10.
The same measure, in the same setting: with `C(CCCCCCC1=CC1)=NN1CCCCC1` [Compound 36, 1-(7-(N-piperidinoimino-heptyl))-cyclopropene] the figure was 5; with `CCC1=C(COc2cccc(C(F)(F)F)c2)C1` [Compound 37, 1-(3-trifluoromethylphenoxymethyl)-2-ethylcyclopropene], 0.
Still for that read-out and setting: with `CCCCCCCCC1=C(B2OCO2)C1` [Compound 38, 2-Octyl-1-(2-(2-boro-1,3dioxetane))-cyclopropene] the figure was 3.
Turning to `COc1cccc(C(O)C2=C(C)C2)c1` (stereo not drawn) [Compound 39, 1-Methyl-2-(hydroxy(3-methoxyphenyl)methyl)cyclopropene], the “Gas @ 10 ppm: visual rating” value was 2.
On the same count and under the same terms, with `O=C(O)CC1(c2ccccc2)C(c2ccccc2)=C1c1ccccc1` [Compound 40, 3-Hydroxycarbonylmethyl-1,2,3-triphenylcyclopropene] the figure was 7.
As to `ClC1=C(c2ccccc2)C1(Cl)Cl` [Compound 41, 1-Phenyl-2,3,3-trichlorocyclopropene], the “Gas @ 10 ppm: visual rating” value is 0.
On the same count and under the same terms, with `C1=C(CCSc2ccncc2)C1` [Compound 43] the figure was 10.
The same measure, in the same setting: with `Cc1ccc(C(=O)OCCCCC2=CC2)cc1` [Compound 44, 1-(4-Methylphenylcarbonyloxybutyl)-cyclopropene] the figure was 0.
Same read-out and setting: with `BrC1=C(Cc2ccccc2)C1` [Compound 45, 1-Benzyl-2-bromocyclopropene] the figure was 5; with `ClC1=C(Cc2ccccc2)C1` [Compound 46, 1-Benzyl-2-chlorocyclopropene], 5; with `O=C(OCC1=CC1)c1ccco1` [Compound 47], 0.
As for `O=C(OCCC1=CC1)c1cc2ccccc2o1` [Compound 49], the “Gas @ 10 ppm: visual rating” value stood at 0.
The same measure, in the same setting: with `O=C(OCCC1=CC1)c1cnc(Cl)c(Cl)c1` [Compound 50] the figure was 0; with `Cc1nnsc1C(=O)OCCC1=CC1` [Compound 51], 0; with `CC(C)(C)OC(=O)N1CC(C(=O)OCCC2=CC2)CS1` (stereo not drawn) [Compound 52], 0.
On to `CS(=O)(=O)Oc1ccc(C(=O)OCCCCCCCC2=CC2)cc1` [Compound 53, 1-(7-(4-Methanesulfonyloxyphenyl)-carbonyloxyheptyl)-cyclopropene], for which the “Gas @ 10 ppm: visual rating” value was determined as 0.
Same read-out and setting: with `O=C(OCCCCCCCC1=CC1)C1CCCO1` (stereo not drawn) [Compound 54] the figure was 0.
Same read-out and setting: with `O=S(=O)(OCCCCCCCCC1=CC1)c1ccccc1` [Compound 56, 1-(8-Benzenesulfonyloxyoctyl)-cyclopropene] the figure was 5; with `Cc1ccc(SCCCCCCCCC2=CC2)cc1` [Compound 57, 1-(4-Methylphenylthiooctyl)-cyclopropene], 0; with `CCC1=C(n2nc(-c3ccc(Cl)cc3)ccc2=O)C1` [Compound 60, 1-Ethyl-2-(3-(4-chlorophenol)-pyridaz-6-on-1-yl)-cyclopropene], 4.
Still for that read-out and setting: with `O=C(OCCCC1=CC1)c1cnccn1` [Compound 61] the figure was 0; with `O=C(OCCC1=CC1)c1ccc(-n2cccc2)cc1` [Compound 62], 0.

Staying with this assay, now noted: gas 343.4 ppm (in cell); scale 0 to 10.
For the compound `Cc1cc(C)nc(CCC2=CC2)n1` [Compound 42], the “Gas @ 343.4 ppm: rating of protection against epinasty” value is given as 3(@ 343.4.
The same measure, in the same setting: with `O=C(OCCC1=CC1)c1cc2ccccc2o1` [Compound 49] the figure was 9(@343.4.

Still in this assay, the particulars now being: gas 438 ppm (in cell); scale 0 to 10.
For `O=C(OCCCC1=CC1)c1cnccn1` [Compound 61], the “Gas @ 438 ppm: rating of protection against epinasty” value is given as 10(@438.

The same assay, now with this note: gas 500 ppm; scale 0 to 10.
With `C(CCCCCCC1=CC1)=NN1CCCCC1` [Compound 36, 1-(7-(N-piperidinoimino-heptyl))-cyclopropene], the “Gas @ 500 ppm: rating of protection against epinasty” value was 10^c^.

Still in this assay, the particulars now being: gas 509 ppm (in cell); scale 0 to 10.
As to `O=C(OCCC1=CC1)c1ccc(-n2cccc2)cc1` [Compound 62], the “Gas @ 509 ppm: rating of protection against epinasty” value was 10(@509.

The same assay, now with this note: gas 551 ppm (in cell); scale 0 to 10.
For `O=C(OCC1=CC1)c1ccco1` [Compound 47], the “Gas @ 551 ppm: rating of protection against epinasty” value is listed as 10(@551.

The assay is the same for the next values; noted with them: gas 800 ppm (in cell); scale 0 to 10.
As for `C1=C(CCCSc2ccccn2)C1` [Compound 55, 1-(2-Pyridylthiopropyl)-cyclopropene], the “Gas @ 800 ppm: rating of protection against epinasty” value was 10(@800.

The same assay, now with this note: gas 850 ppm (footnote b or in cell); scale 0 to 10.
`CCCCCCCCC1=C(B2OCO2)C1` [Compound 38, 2-Octyl-1-(2-(2-boro-1,3dioxetane))-cyclopropene]: the “Gas, tested at 850 ppm: rating of protection against epinasty” value is reported as 10(@850.

The same assay, now with this note: gas 1000 ppm v/v; 10 ppm ethylene after 4 h, scored 16 h later; scale 0 (no protection) to 10 (complete protection).
Take `Cc1cc(C)c(CC2=CC2)c(C)c1` [Compound 30]: the “Gas @ 1000 ppm: visual rating of protection against ethylene-induced epinasty” value (from here on “Gas @ 1000 ppm: visual rating”) is reported as 8.
On the same count and under the same terms, with `C1=C(CCCCCCCn2cccn2)C1` [Compound 32] the figure was 10; with `CCC1=C(COc2cccc(C(F)(F)F)c2)C1` [Compound 37, 1-(3-trifluoromethylphenoxymethyl)-2-ethylcyclopropene], 2.
For `COc1cccc(C(O)C2=C(C)C2)c1` (stereo not drawn) [Compound 39, 1-Methyl-2-(hydroxy(3-methoxyphenyl)methyl)cyclopropene], the “Gas @ 1000 ppm: visual rating” value worked out at 10.
With `ClC1=C(c2ccccc2)C1(Cl)Cl` [Compound 41, 1-Phenyl-2,3,3-trichlorocyclopropene], the “Gas @ 1000 ppm: visual rating” value is given as 2.
On the same count and under the same terms, with `Cc1ccc(C(=O)OCCCCC2=CC2)cc1` [Compound 44, 1-(4-Methylphenylcarbonyloxybutyl)-cyclopropene] the figure was 7.
Same read-out and setting: with `BrC1=C(Cc2ccccc2)C1` [Compound 45, 1-Benzyl-2-bromocyclopropene] the figure was 10.
The same measure, in the same setting: with `ClC1=C(Cc2ccccc2)C1` [Compound 46, 1-Benzyl-2-chlorocyclopropene] the figure was 10; with `O=C(OCCC1=CC1)c1cnc(Cl)c(Cl)c1` [Compound 50], 9; with `Cc1nnsc1C(=O)OCCC1=CC1` [Compound 51], 3.
On to `CC(C)(C)OC(=O)N1CC(C(=O)OCCC2=CC2)CS1` (stereo not drawn) [Compound 52], for which the “Gas @ 1000 ppm: visual rating” value was 3.
For `CS(=O)(=O)Oc1ccc(C(=O)OCCCCCCCC2=CC2)cc1` [Compound 53, 1-(7-(4-Methanesulfonyloxyphenyl)-carbonyloxyheptyl)-cyclopropene], the “Gas @ 1000 ppm: visual rating” value was 10.
Still for that read-out and setting: with `O=C(OCCCCCCCC1=CC1)C1CCCO1` (stereo not drawn) [Compound 54] the figure was 2; with `Cc1ccc(SCCCCCCCCC2=CC2)cc1` [Compound 57, 1-(4-Methylphenylthiooctyl)-cyclopropene], 10; with `CCC1=C(n2nc(-c3ccc(Cl)cc3)ccc2=O)C1` [Compound 60, 1-Ethyl-2-(3-(4-chlorophenol)-pyridaz-6-on-1-yl)-cyclopropene], 0.

Another assay has the same test system. Kind of assay: Tomato epinasty test, spray application treatment. It is filed as in vivo. The conditions noted are these: spray 10 ppm in 10% acetone/90% water, 0.05% Silwett L-77; 10 ppm ethylene; scale 0 to 10 (10 = complete protection). How it is done: as §1, §2
Spray application treatment entails using a DeVilbiss atomizer to completely cover all foliage and stems of two pots of Patio var. tomato plants with the appropriate amount of experimental compound dissolved in 10% acetone/90% water with 0.05% Silwett L-77 surfactant. Plants are air-dried in a drying hood for four hours then transferred to a 4.8 L polystyrene chamber which is sealed.
Ethylene gas equal to 10 ppm v/v final concentration is injected into the sealed chamber. Sixteen hours later the chambers are opened in an exhaust hood, allowed to air and the plants scored visually for the degree of protection against ethylene-induced epinasty conferred by the experimental compound when compared to ethylene treated and untreated controls on a scale of 0 to 10. A rating of 10 means complete protection. A rating of 0 means no protection from the effects of ethylene.
With `Cc1cc(C)c(CC2=CC2)c(C)c1` [Compound 30], the “Spray @10 ppm: visual rating of protection against ethylene-induced epinasty” value (“Spray @10 ppm: visual rating” below) was 0.
On the same count and under the same terms, with `C1=C(CC2CCCC2)C1` [Compound 31] the figure was 7.5.
Still for that read-out and setting: with `C1=C(CCCCCCCn2cccn2)C1` [Compound 32] the figure was 10; with `C1=C(CCCC2OCCO2)C1` [Compound 33], 0; with `C1=C(CCSc2ccccn2)C1` [Compound 35], 9.
Regarding `C(CCCCCCC1=CC1)=NN1CCCCC1` [Compound 36, 1-(7-(N-piperidinoimino-heptyl))-cyclopropene], the “Spray @10 ppm: visual rating” value was determined as 3.
As for `CCC1=C(COc2cccc(C(F)(F)F)c2)C1` [Compound 37, 1-(3-trifluoromethylphenoxymethyl)-2-ethylcyclopropene], the “Spray @10 ppm: visual rating” value is on record as 0.
On the same count and under the same terms, with `CCCCCCCCC1=C(B2OCO2)C1` [Compound 38, 2-Octyl-1-(2-(2-boro-1,3dioxetane))-cyclopropene] the figure was 0; with `COc1cccc(C(O)C2=C(C)C2)c1` (stereo not drawn) [Compound 39, 1-Methyl-2-(hydroxy(3-methoxyphenyl)methyl)cyclopropene], 0; with `O=C(O)CC1(c2ccccc2)C(c2ccccc2)=C1c1ccccc1` [Compound 40, 3-Hydroxycarbonylmethyl-1,2,3-triphenylcyclopropene], 0.
Still for that read-out and setting: with `ClC1=C(c2ccccc2)C1(Cl)Cl` [Compound 41, 1-Phenyl-2,3,3-trichlorocyclopropene] the figure was 0.
Same read-out and setting: with `Cc1cc(C)nc(CCC2=CC2)n1` [Compound 42] the figure was 2.
Regarding `C1=C(CCSc2ccncc2)C1` [Compound 43], the “Spray @10 ppm: visual rating” value was 0.
Still for that read-out and setting: with `Cc1ccc(C(=O)OCCCCC2=CC2)cc1` [Compound 44, 1-(4-Methylphenylcarbonyloxybutyl)-cyclopropene] the figure was 0; with `BrC1=C(Cc2ccccc2)C1` [Compound 45, 1-Benzyl-2-bromocyclopropene], 0.
Regarding `ClC1=C(Cc2ccccc2)C1` [Compound 46, 1-Benzyl-2-chlorocyclopropene], the “Spray @10 ppm: visual rating” value turned out to be 0.
Same read-out and setting: with `O=C(OCC1=CC1)c1ccco1` [Compound 47] the figure was 0.
As to `O=C(OCCC1=CC1)c1cc2ccccc2o1` [Compound 49], the “Spray @10 ppm: visual rating” value is 0.
On the same count and under the same terms, with `O=C(OCCC1=CC1)c1cnc(Cl)c(Cl)c1` [Compound 50] the figure was 0.
The same measure, in the same setting: with `Cc1nnsc1C(=O)OCCC1=CC1` [Compound 51] the figure was 0; with `CC(C)(C)OC(=O)N1CC(C(=O)OCCC2=CC2)CS1` (stereo not drawn) [Compound 52], 2; with `CS(=O)(=O)Oc1ccc(C(=O)OCCCCCCCC2=CC2)cc1` [Compound 53, 1-(7-(4-Methanesulfonyloxyphenyl)-carbonyloxyheptyl)-cyclopropene], 0.
For `O=C(OCCCCCCCC1=CC1)C1CCCO1` (stereo not drawn) [Compound 54], the “Spray @10 ppm: visual rating” value is reported as 0.
On the same count and under the same terms, with `C1=C(CCCSc2ccccn2)C1` [Compound 55, 1-(2-Pyridylthiopropyl)-cyclopropene] the figure was 3; with `O=S(=O)(OCCCCCCCCC1=CC1)c1ccccc1` [Compound 56, 1-(8-Benzenesulfonyloxyoctyl)-cyclopropene], 10; with `Cc1ccc(SCCCCCCCCC2=CC2)cc1` [Compound 57, 1-(4-Methylphenylthiooctyl)-cyclopropene], 2.
On the same count and under the same terms, with `CCC1=C(n2nc(-c3ccc(Cl)cc3)ccc2=O)C1` [Compound 60, 1-Ethyl-2-(3-(4-chlorophenol)-pyridaz-6-on-1-yl)-cyclopropene] the figure was 0; with `O=C(OCCCC1=CC1)c1cnccn1` [Compound 61], 0.
Still for that read-out and setting: with `O=C(OCCC1=CC1)c1ccc(-n2cccc2)cc1` [Compound 62] the figure was 0.

The assay is the same for the next values; noted with them: spray 1000 ppm (in cell); scale 0 to 10.
On to `Cc1nnsc1C(=O)OCCC1=CC1` [Compound 51], for which the “Spray @ 1000 ppm: rating of protection against epinasty” value is 8.
On the same count and under the same terms, with `CC(C)(C)OC(=O)N1CC(C(=O)OCCC2=CC2)CS1` (stereo not drawn) [Compound 52] the figure was 10.
